From the CombiSolv-Exp solvation set (Vermeire and Green 2021) come the findings set out here.

The nature of the data set: solvent given as SMILES.
Setting [1] is: in CCCCCCCCC=CCCCCCCCC(=O)OCC(COC(=O)CCCCCCCC=CCCCCCCCC)OC(=O)CCCCCCCC=CCCCCCCCC

For the compound `FCCl`, the “solvation free energy, 298 K” value (in O) was -0.77 kcal/mol.
As to `Cc1ccccc1C`, the “solvation free energy, 298 K” value is -5.37 kcal/mol (in CC#N); -5.5 kcal/mol (in CC(C)CC(C)(C)C); -4.31 kcal/mol (in CC(O)CO); -5.51 kcal/mol (in CCCCCCC); -5.38 kcal/mol (in CCCCCCCCCCCCCCCC); -5.3 kcal/mol (in CCCCCCCCO). In addition, the “solvation free energy, 298 K” value is, setting by setting: (in CCCCCO) -5.18 kcal/mol; (in CCCCOC(C)=O) -6.22 kcal/mol; (in CNC=O) -5.02 kcal/mol; (in COCCO) -5.25 kcal/mol; (in ClCCCl) -6.13 kcal/mol; (in NC=O) -3.55 kcal/mol. Also, the “solvation free energy, 298 K” value (in NCCO) is -4.08 kcal/mol; the “solvation free energy, 298 K” value (in O) is -0.89 kcal/mol; the “solvation free energy, 298 K” value (in O=CN1CCOCC1) is -5.27 kcal/mol; the “solvation free energy, 298 K” value (in O=Cc1ccco1) was -5.37 kcal/mol; the “solvation free energy, 298 K” value (in OCCO) was -3.65 kcal/mol; the “solvation free energy, 298 K” value (in OCCOCCO) is -4.48 kcal/mol. Moreover, the “solvation free energy, 298 K” value (in OCCOCCOCCO) was -4.61 kcal/mol.
With `CC(C)CCCCCCCOC(=O)c1ccccc1C(=O)OCCCCCCCC(C)C`, under “in O”, the “solvation free energy, 298 K” value was -5.93 kcal/mol.
Consider `Cc1nc(N(C)C)nc(OC(=O)N(C)C)c1C`, for which the “solvation free energy, 298 K” value (in O) was -9.41 kcal/mol.
Still for that read-out and setting: under `CCN(CC)c1c([N+](=O)[O-])cc(C(F)(F)F)c(N)c1[N+](=O)[O-]` stands -5.66 kcal/mol.
With `Clc1cc(Cl)c(-c2cc(Cl)c(Cl)cc2Cl)cc1Cl`, the “solvation free energy, 298 K” value reads like this: (in CCCCCCCCO) -12.9 kcal/mol; (in O) -3.1 kcal/mol.
On to `COC(C)C`, for which the “solvation free energy, 298 K” value (in O) was -2.01 kcal/mol.
Take `CN`: the “solvation free energy, 298 K” value (in CCCCCC) is -1.64 kcal/mol; the “solvation free energy, 298 K” value (in CCCCO) is -2.89 kcal/mol; the “solvation free energy, 298 K” value (in CN(C)C=O) is -2.66 kcal/mol; the “solvation free energy, 298 K” value (in ClC(Cl)(Cl)Cl) is -2.33 kcal/mol; the “solvation free energy, 298 K” value (in ClC(Cl)Cl) is -3.16 kcal/mol; the “solvation free energy, 298 K” value (in O) is -4.56 kcal/mol.
In the case of `c1ccc2c(c1)-c1cccc3cccc-2c13`, the “solvation free energy, 298 K” value is, setting by setting: (in C1COCCO1) -13 kcal/mol; (in CC(=O)N(C)C) -13.2 kcal/mol; (in CC(C)CC(C)(C)C) -11.2 kcal/mol; (in CC(C)CC(C)O) -11.2 kcal/mol; (in CC(C)CCO) -11.2 kcal/mol; (in CC(C)CO) -11.1 kcal/mol. For the same compound, the “solvation free energy, 298 K” value is -11.1 kcal/mol (in CC(C)O); -11.3 kcal/mol (in CCC(C)(C)O); -11.2 kcal/mol (in CCC(C)O); -11.4 kcal/mol (in CCCC(C)CO); -11.4 kcal/mol (in CCCC(C)O); -11.5 kcal/mol (in CCCCC(CC)CO). For the same compound, the “solvation free energy, 298 K” value is, setting by setting: (in CCCCCC) -11.5 kcal/mol; (in CCCCCCC) -11.6 kcal/mol; (in CCCCCCCC) -11.6 kcal/mol; under setting [1], -12.2 kcal/mol; (in CCCCCCCCCC) -11.7 kcal/mol; (in CCCCCCCCO) -11.8 kcal/mol. Also, the “solvation free energy, 298 K” value is, setting by setting: (in CCCCCCCO) -11.9 kcal/mol; (in CCCCCCO) -11.7 kcal/mol; (in CCCCCO) -11.6 kcal/mol; (in CCCCCl) -12.8 kcal/mol; (in CCCCO) -11.5 kcal/mol; (in CCCCOC(C)=O) -12.7 kcal/mol. Moreover, the “solvation free energy, 298 K” value (in CCCCOCCCC) was -12.1 kcal/mol; the “solvation free energy, 298 K” value (in CCCO) was -11.3 kcal/mol; the “solvation free energy, 298 K” value (in CCO) was -11.4 kcal/mol; the “solvation free energy, 298 K” value (in CCOC(C)=O) is -12.7 kcal/mol; the “solvation free energy, 298 K” value (in CCOCC) is -12.4 kcal/mol; the “solvation free energy, 298 K” value (in CN(C)C=O) is -13.2 kcal/mol. Moreover, the “solvation free energy, 298 K” value reads like this: (in CO) -11.2 kcal/mol; (in COC(C)(C)C) -12.2 kcal/mol; (in ClC(Cl)(Cl)Cl) -12.7 kcal/mol; (in ClC(Cl)Cl) -13 kcal/mol; (in ClCCCl) -13 kcal/mol; (in O) -4.69 kcal/mol.
As to `ClC(Cl)=C(c1ccc(Cl)cc1)c1ccc(Cl)cc1`, the “solvation free energy, 298 K” value is -12.8 kcal/mol under setting [1], -13.2 kcal/mol (in CCCCCCCCO) and -3.78 kcal/mol (in O).
Take `CCC(C)(O)CC`: for the setting “in O”, the “solvation free energy, 298 K” value was -4.2 kcal/mol.
The same measure, in the same setting: the result for `OCCCO` reads -9.96 kcal/mol; that for `COc1cccc(OC)c1O`, -6.96 kcal/mol.
In the case of `CCC(CC)(CC)CC`, the “solvation free energy, 298 K” value by setting is: (in CCCCCC) -5.88 kcal/mol; (in CO) -4.3 kcal/mol.
Turning to `CC1=CCC2C3C1C2(C)CCCC3(C)C` (stereo not given), the “solvation free energy, 298 K” value (in O) amounted to 0.29 kcal/mol.
Same read-out and setting: under `CCc1ccccn1` stands -4.33 kcal/mol; under `CC(=O)c1c(C)[nH]n(-c2ccccc2)c1=O`, -9.89 kcal/mol.
Regarding `CCCCI`, the “solvation free energy, 298 K” value by setting is: (in ClC(Cl)(Cl)Cl) -5.57 kcal/mol; (in O) -0.25 kcal/mol.
Turning to `N#Cc1cccc(O)c1`, for the setting “in O”, the “solvation free energy, 298 K” value is -9.65 kcal/mol.
For the compound `FC(F)=CCl`, the “solvation free energy, 298 K” value reads like this: (in CCCCCCCC(=O)OCC(COC(=O)CCCCCCC)OC(=O)CCCCCCC) -1.77 kcal/mol; (in CCCCCCCCO) -1.69 kcal/mol; (in CN1CCCC1=O) -2.26 kcal/mol; (in CN(C)C=O) -1.99 kcal/mol; (in O) 0.52 kcal/mol.
Regarding `O=C(O)c1ccccc1[N+](=O)[O-]`, the “solvation free energy, 298 K” value (in CCCCCCCCO) was -12.5 kcal/mol.
`FC(Cl)(Cl)C(F)(Cl)Cl`: the “solvation free energy, 298 K” value was -4.82 kcal/mol (in C1CCOC1); -4.46 kcal/mol (in C1COCCO1); -4.45 kcal/mol (in CC(C)=O); -4.43 kcal/mol (in CCCCCC); -3.98 kcal/mol (in CCCCCCC); -3.64 kcal/mol (in CCCO). In addition, the “solvation free energy, 298 K” value is -4.62 kcal/mol (in CCOC(C)=O), -4.68 kcal/mol (in COC(C)(C)C) and 0.87 kcal/mol (in O).
For `c1cc2c3c(cccc3c1)CC2`, the “solvation free energy, 298 K” value (in C1CCOC1) was -9.86 kcal/mol; the “solvation free energy, 298 K” value (in C1COCCO1) was -9.66 kcal/mol; the “solvation free energy, 298 K” value (in CC(C)(C)O) is -8.39 kcal/mol; the “solvation free energy, 298 K” value (in CC(C)CC(C)(C)C) is -8.67 kcal/mol; the “solvation free energy, 298 K” value (in CC(C)CC(C)O) is -8.46 kcal/mol; the “solvation free energy, 298 K” value (in CC(C)CCCC(C)CCO) was -8.69 kcal/mol. In addition, the “solvation free energy, 298 K” value runs as follows: (in CC(C)CCO) -8.43 kcal/mol; (in CC(C)CO) -8.4 kcal/mol; (in CC(C)O) -8.38 kcal/mol; (in CC(C)OC(C)C) -9.11 kcal/mol; (in CCC(C)(C)O) -8.61 kcal/mol; (in CCC(C)O) -8.46 kcal/mol. Moreover, the “solvation free energy, 298 K” value is, setting by setting: (in CCCC(C)CO) -8.55 kcal/mol; (in CCCC(C)O) -8.52 kcal/mol; (in CCCCC(CC)CO) -8.66 kcal/mol; (in CCCCCC) -8.86 kcal/mol; (in CCCCCCC) -8.89 kcal/mol; (in CCCCCCCC) -8.9 kcal/mol. In addition, the “solvation free energy, 298 K” value by setting is: under setting [1], -9.22 kcal/mol; (in CCCCCCCCCC) -8.88 kcal/mol; (in CCCCCCCCCCO) -8.8 kcal/mol; (in CCCCCCCCO) -8.61 kcal/mol; (in CCCCCCCO) -8.75 kcal/mol; (in CCCCCCO) -8.72 kcal/mol. In addition, the “solvation free energy, 298 K” value (in CCCCCO) is -8.68 kcal/mol; the “solvation free energy, 298 K” value (in CCCCO) was -8.6 kcal/mol; the “solvation free energy, 298 K” value (in CCCCOC(C)=O) is -9.43 kcal/mol; the “solvation free energy, 298 K” value (in CCCCOCCCC) was -9.18 kcal/mol; the “solvation free energy, 298 K” value (in CCCO) was -8.53 kcal/mol; the “solvation free energy, 298 K” value (in CCO) was -8.4 kcal/mol. Further, the “solvation free energy, 298 K” value runs as follows: (in CCOC(C)=O) -9.44 kcal/mol; (in CCOCC) -9.37 kcal/mol; (in CNC=O) -8.5 kcal/mol; (in CO) -8.21 kcal/mol; (in COC(C)(C)C) -9.25 kcal/mol; (in COC(C)=O) -9.32 kcal/mol. Moreover, the “solvation free energy, 298 K” value was -9.57 kcal/mol (in Cc1ccc(C)cc1); -9.78 kcal/mol (in Cc1ccccc1C); -9.63 kcal/mol (in ClC(Cl)(Cl)Cl); -9.84 kcal/mol (in ClC(Cl)Cl); -9.78 kcal/mol (in ClCCCl); -3.18 kcal/mol (in O).
In the case of `CCC(C)Br` (stereo not given), the “solvation free energy, 298 K” value (in C=CCCCCCCCCCCCCCC) is -3.96 kcal/mol and the “solvation free energy, 298 K” value (in O) was -0.27 kcal/mol.
With `Cc1ccccc1N(O)C(=O)c1ccc(Cl)cc1`, where the note is “in O”, the “solvation free energy, 298 K” value was -10.8 kcal/mol.
With `CCC(C)(C)O`, the “solvation free energy, 298 K” value (in CC(=O)CC(C)=O) is -5.07 kcal/mol; the “solvation free energy, 298 K” value (in CCCCCCC) was -3.85 kcal/mol; the “solvation free energy, 298 K” value (in CCCCCCCC) is -3.99 kcal/mol; the “solvation free energy, 298 K” value (in CCCCCCCCCC) was -3.99 kcal/mol; the “solvation free energy, 298 K” value (in O) was -4.43 kcal/mol.
Consider `Cc1cccs1`, for which, where the note is “in O”, the “solvation free energy, 298 K” value is -1.38 kcal/mol.
As to `C#CC`, the “solvation free energy, 298 K” value runs as follows: (in C1CCC2CCCCC2C1) -1.49 kcal/mol; (in C1COCCO1) -2.46 kcal/mol; (in CC1COC(=O)O1) -2.04 kcal/mol; (in CC(C)=O) -2.48 kcal/mol; (in CC(C)CC(C)(C)C) -1.66 kcal/mol; (in CCCCCCCCCCCCCCCC) -1.4 kcal/mol. The “solvation free energy, 298 K” value is -2.47 kcal/mol (in CN1CCCC1=O); -2.49 kcal/mol (in CN(C)C=O); -2.6 kcal/mol (in CN(C)P(=O)(N(C)C)N(C)C); -2.51 kcal/mol (in COC(C)=O); -2.03 kcal/mol (in COCCOCCOCCOC); -2.14 kcal/mol (in CS(C)=O). For the same compound, the “solvation free energy, 298 K” value reads like this: (in Nc1ccccc1) -2.01 kcal/mol; (in O) -0.48 kcal/mol; (in OCCCOCCCO) -1.53 kcal/mol; (in OCCO) -1.22 kcal/mol; (in OCc1ccccc1) -1.77 kcal/mol.
Take `COCCN`: the “solvation free energy, 298 K” value (in O) was -6.55 kcal/mol.
On the same count and under the same terms, the result for `CC(C)C(C)c1ccc(CC(=O)O)cc1` (stereo not given) reads -7.99 kcal/mol.
Consider `CC(C)CC(=O)CC(C)C`, for which the “solvation free energy, 298 K” value (in CCCCCCC) was -6.13 kcal/mol.
Regarding `CC(=O)Oc1ccccc1`, for the setting “in O”, the “solvation free energy, 298 K” value is -4.78 kcal/mol.
Same read-out and setting: under `CCCCN(CCCC)CCCC` stands -4.09 kcal/mol.
